What was measured:
Format in all cases: cell-based
Microsporum canis = assay: Antifungal activity in vitro, resazurin growth inhibition: Microsporum canis (B68128)
How it was run: (§1)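 Dermatophytes incubated at 27° C. for one week or more with compound, max 64 μM, in RPMI-1640/MOPS pH 7.0±0.1, 10^3 cfu/well. Viability by resazurin-to-resorufin fluorescence, 550/590 nm.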

[1] = system: Trichophyton mentagrophytes; assay: Antifungal activity in vitro, resazurin growth inhibition: Trichophyton mentagrophytes (B70554)
How it was run: as §1

Trichophyton rubrum = assay: Antifungal activity in vitro, resazurin growth inhibition: Trichophyton rubrum (B68183)
How it was run: as §1

Sporothrix schenkii = assay: Antifungal activity in vitro, resazurin growth inhibition: Sporothrix schenkii (B62482)
How it was run: (§2)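 Fungi (10^3 cfu/well) grown in RPMI-1640 with L-glutamine, 2% glucose, MOPS pH 7.0, against 2- or 4-fold compound dilutions up to 64 μM. Dermatophytes incubated one week or more at 27° C. Growth inhibition read fluorimetrically (λex 550, λem 590 nm) after resazurin addition and further incubation.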

Aspergillus fumigatus = assay: Antifungal activity in vitro, resazurin growth inhibition: Aspergillus fumigatus (B42928)
How it was run: as §2

Candida parapsilosis = assay: Antifungal activity in vitro, resazurin growth inhibition: Candida parapsilosis (B66126)
How it was run: as §2

Cryptococcus neoformans = assay: Antifungal activity in vitro, resazurin growth inhibition: Cryptococcus neoformans (B66663)
How it was run: as §2

For `COc1ccc2oc(C3NCc4c(Cl)cc(Cl)cc4-n4cccc43)cc2c1.Cl` (racemic) [Compound 46], the “Inf. B: Microsporum canis B68128, pIC50” value (Microsporum canis) was 5.12, the “Inf. G: Trichophyton mentagrophytes B70554, pIC50” value (“Inf. G” below) [1] was under 4.19 and the “Inf. C: Trichophyton rubrum B68183, pIC50” value (“Inf. C” below) (Trichophyton rubrum) was under 4.19. For the same compound, the “Inf. A: Sporothrix schenkii B62482, pIC50” value (Sporothrix schenkii) was under 4.19, the “Inf. E: Aspergillus fumigatus B42928, pIC50” value (“Inf. E” below) (Aspergillus fumigatus) was under 4.19 and the “Inf. D: Candida parapsilosis B66126, pIC50” value (from here on “Inf. D”) (Candida parapsilosis) was under 4.19. For the same compound, the “Inf. F: Cryptococcus neoformans B66663, pIC50” value (“Inf. F” below) (Cryptococcus neoformans) was under 4.19.
For `Cc1ccc(Cl)c2c1-n1cccc1C(c1cc3ccccc3s1)NC2.Cl` (racemic) [Compound 57], the “Inf. B: Microsporum canis B68128, pIC50” value (Microsporum canis) was 5.24, the “Inf. G” value [1] was under 4.19 and the “Inf. C” value (Trichophyton rubrum) was 5.10. For the same compound, the “Inf. A: Sporothrix schenkii B62482, pIC50” value (Sporothrix schenkii) was under 4.19, the “Inf. E” value (Aspergillus fumigatus) was under 4.19 and the “Inf. D” value (Candida parapsilosis) was under 4.19. For the same compound, the “Inf. F” value (Cryptococcus neoformans) was under 4.19.
For `FC(F)(F)c1cc(C2=NCc3ccc(Cl)cc3-n3cccc32)ccn1` [Compound 98], the “Inf. B: Microsporum canis B68128, pIC50” value (Microsporum canis) was under 4.19, the “Inf. G” value [1] was 4.48 and the “Inf. C” value (Trichophyton rubrum) was 4.47. The “Inf. A: Sporothrix schenkii B62482, pIC50” value (Sporothrix schenkii) was 4.49, the “Inf. E” value (Aspergillus fumigatus) was 4.49 and the “Inf. D” value (Candida parapsilosis) was 5.06. The “Inf. F” value (Cryptococcus neoformans) was 5.03.
For `CCc1ccc(C2=NCc3c(ccc(Cl)c3Cl)-n3cccc32)cn1` [Compound 75], the “Inf. B: Microsporum canis B68128, pIC50” value (Microsporum canis) was 6.45, the “Inf. G” value [1] was under 4.19 and the “Inf. C” value (Trichophyton rubrum) was under 4.19. For the same compound, the “Inf. A: Sporothrix schenkii B62482, pIC50” value (Sporothrix schenkii) was under 4.19, the “Inf. E” value (Aspergillus fumigatus) was under 4.19 and the “Inf. D” value (Candida parapsilosis) was under 4.19. For the same compound, the “Inf. F” value (Cryptococcus neoformans) was under 4.19.
For `CCc1nc(C2=NCc3c(Cl)cccc3-n3cccc32)cs1` [Compound 64], the “Inf. B: Microsporum canis B68128, pIC50” value (Microsporum canis) was 5.42, the “Inf. G” value [1] was 5.94 and the “Inf. C” value (Trichophyton rubrum) was 5.46. For the same compound, the “Inf. A: Sporothrix schenkii B62482, pIC50” value (Sporothrix schenkii) was under 4.19, the “Inf. E” value (Aspergillus fumigatus) was under 4.19 and the “Inf. D” value (Candida parapsilosis) was under 4.19. For the same compound, the “Inf. F” value (Cryptococcus neoformans) was 4.70.
In the case of `Clc1cccc2c1CN=C(c1ccc3snnc3c1)c1cccn1-2` [Compound 195], the “Inf. B: Microsporum canis B68128, pIC50” value (Microsporum canis) is reported as under 4.19, the “Inf. G” value [1] is reported as under 4.19 and the “Inf. C” value (Trichophyton rubrum) is reported as 6.34. For the same compound, the “Inf. A: Sporothrix schenkii B62482, pIC50” value (Sporothrix schenkii) was under 4.19, the “Inf. E” value (Aspergillus fumigatus) was under 4.19 and the “Inf. D” value (Candida parapsilosis) was under 4.19. The “Inf. F” value (Cryptococcus neoformans) was under 4.19.
With `Fc1cc(F)c2c(c1)-n1cccc1C(c1ccc3scnc3c1)=NC2` [Compound 190] the “Inf. B: Microsporum canis B68128, pIC50” value (Microsporum canis) was 5.56, the “Inf. G” value [1] was 5.31 and the “Inf. C” value (Trichophyton rubrum) was 6.14. For the same compound, the “Inf. A: Sporothrix schenkii B62482, pIC50” value (Sporothrix schenkii) was under 4.19, the “Inf. E” value (Aspergillus fumigatus) was under 4.19 and the “Inf. D” value (Candida parapsilosis) was under 4.19. The “Inf. F” value (Cryptococcus neoformans) was 4.93.
For `FC(F)(F)c1ncc(C2=NCc3c(Cl)cc(Cl)cc3-n3cccc32)cn1` [Compound 104], the “Inf. B: Microsporum canis B68128, pIC50” value (Microsporum canis) was under 4.19, the “Inf. G” value [1] was under 4.19 and the “Inf. C” value (Trichophyton rubrum) was 5.91. For the same compound, the “Inf. A: Sporothrix schenkii B62482, pIC50” value (Sporothrix schenkii) was under 4.19, the “Inf. E” value (Aspergillus fumigatus) was 5.54 and the “Inf. D” value (Candida parapsilosis) was under 4.19. For the same compound, the “Inf. F” value (Cryptococcus neoformans) was under 4.19.
With `Cl.FC(F)(F)c1ccc(C2NCc3c(Cl)cccc3-n3cccc32)nn1` (racemic) [Compound 28] the “Inf. B: Microsporum canis B68128, pIC50” value (Microsporum canis) was 4.29, the “Inf. G” value [1] was 4.28 and the “Inf. C” value (Trichophyton rubrum) was 4.43. The “Inf. A: Sporothrix schenkii B62482, pIC50” value (Sporothrix schenkii) was under 4.19, the “Inf. E” value (Aspergillus fumigatus) was under 4.19 and the “Inf. D” value (Candida parapsilosis) was under 4.19. The “Inf. F” value (Cryptococcus neoformans) was under 4.19.
For `CC(=O)c1ccc(C2=NCc3c(F)cccc3-n3cccc32)cn1` [Compound 93], the “Inf. B: Microsporum canis B68128, pIC50” value (Microsporum canis) was 5.26, the “Inf. G” value [1] was 5.63 and the “Inf. C” value (Trichophyton rubrum) was 6.16. For the same compound, the “Inf. A: Sporothrix schenkii B62482, pIC50” value (Sporothrix schenkii) was under 4.19, the “Inf. E” value (Aspergillus fumigatus) was 5.02 and the “Inf. D” value (Candida parapsilosis) was under 4.19. For the same compound, the “Inf. F” value (Cryptococcus neoformans) was under 4.19.

From patent US9493468B2, “Antifungal 5,6-dihydro-4H-pyrrolo[1,2-a][1,4]benzo-diazepines and 6H-pyrrolo[1,2-a][1,4]benzodiazepines substituted with heterocyclic derivatives” (Janssen Pharmaceutica NV, priority 2011, dated 2016)
